# “Also recorded” adds a separate entry of the source.
# Key:
# [1] = test system: marine bacteria (ten strains); assay: Bio-adhesion assay (crystal violet microplate); format: cell-based, marine bacteria isolated from Singapore fouling communities; conditions: for Effect of drugs on adhesion of bacteria: 50 μl of 125 μg ml^−1 drug + 200 μl bacteria, 2 hours
# How it was run: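 Ten marine bacterial strains (A600 0.6 in seawater) left to attach for 2 hours at 28° C on hydrophobic and hydrophilic polystyrene, with 50 μl of drug at 125 μg ml^−1 added. Adherent cells stained with crystal violet, dye extracted with desoxycholate, A590 read; significance by t-test, in duplicate.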
# [2] = test system: hard fouling (barnacles, serpulids, spirorbids); assay: Field testing of coated rods; format: in vivo
# [3] = test system: Balanus amphitrite cyprids; assay: whole plant or invertebrate
# [4] = in words; cited from earlier work
# [5] = crude rank, best (1) to worst (8)
# [6] = drug + VC50 rods vs VC50 control
# [7] = drug + VC50 rods vs uncoated blank control
# [8] = rods coated with drug + VC50, field test
smiles,measurement,setting,value
"Cc1cc2c(s1)Nc1ccccc1N=C2N1CCN(C)CC1 [ZPX, olanzapine]",Effect on bacterial adhesion,[1]; polystyrene or tissue culture surface as named in the value,prevented biofilm formation for almost all strains in the polystyrene surface
same,Effect of drugs on adhesion of bacteria,"[1]; strain 1 (Rhodovulum), hydrophobic surface (untreated polystyrene)",*** (*** p < 0.005)
same,Effect of drugs on adhesion of bacteria,"[1]; strain 4 (Bacillus), hydrophobic surface (untreated polystyrene)",* (Significantly less adhesion observed: * p < 0.05)
same,Effect of drugs on adhesion of bacteria,"[1]; strain 9 (Bacillus), hydrophobic surface (untreated polystyrene)",*** (*** p < 0.005)
same,Effect of drugs on adhesion of bacteria,"[1]; strain 14 (Vibrio), hydrophobic surface (untreated polystyrene)",** (** p < 0.01)
same,Effect of drugs on adhesion of bacteria,"[1]; strain 18 (Microbacterium), hydrophobic surface (untreated polystyrene)",* (Significantly less adhesion observed: * p < 0.05)
same,Effect of drugs on adhesion of bacteria,"[1]; strain 20, hydrophobic surface (untreated polystyrene)",*** (*** p < 0.005)
same,Effect of drugs on adhesion of bacteria,"[1]; strain 27, hydrophobic surface (untreated polystyrene)",*** (*** p < 0.005)
same,Effect of drugs on adhesion of bacteria,"[1]; strain 28, hydrophobic surface (untreated polystyrene)",*** (*** p < 0.005)
same,Effect of drugs on adhesion of bacteria,"[1]; strain 29, hydrophobic surface (untreated polystyrene)",* (Significantly less adhesion observed: * p < 0.05)
same,Effect of drugs on adhesion of bacteria,"[1]; strain 30, hydrophilic surface (tissue culture treated polystyrene)",* (Significantly less adhesion observed: * p < 0.05)
same,"Total hard fouling, mean cover","[2]; coated rods, 25 ug active ingredient per ml of VC50 coating",17.3%
same,Performance against barnacles,"[2]; coated rods, in words",only significant for barnacles
same,Overall performance in field assay,[2]; [5],3
same,"Barnacles, difference in mean cover (%), drug vs VC50",[2]; [6],−23.3%
same,"Serpulids, difference in mean cover (%), drug vs VC50",[2]; [6],−1.67%
same,"Spirorbids, difference in mean cover (%), drug vs VC50",[2]; [6],−12.66%
same,"Total hard fouling, difference in mean cover (%), drug vs VC50",[2]; [6],−37.7%
same,"Barnacles, difference in mean cover (%), drug vs control",[2]; [7],−86.3%
same,"Serpulids, difference in mean cover (%), drug vs control",[2]; [7],−3.33%
same,"Spirorbids, difference in mean cover (%), drug vs control",[2]; [7],+9%
same,"Total hard fouling, difference in mean cover (%), drug vs control",[2]; [7],−80.7%
same,Effect of addition of drug on antifouling performance of VC50 coating (total hard fouling),"[2]; drug at 25 ug per ml of VC50 coating, in words",significantly improved performance against total hard fouling; also recorded: significantly improved the performance of VC50 coating
same,Barnacles Mean cover (%),[2]; [8],6.67%
same,Serpulids Mean cover (%),[2]; [8],0%
same,Spirorbids Mean cover (%),[2]; [8],10.67%
same,Total hard fouling Mean cover (%),"[2]; rods coated with drug + VC50, field test, percentage cover within 6 mm×50 mm transect",17.3%
same,IC50,"[3]; Amphibalanus amphitrite, 24 h, read-out: ED50",2.31 ng/mL
same,Prevention of settlement of barnacle cyprids,[3]; [5],1
same,Effect on settlement of cyprids,[3]; in words,"at concentrations less than 1 ug ml^−1, the cyprids were not killed but were not able to settle; also recorded: prevented the settlement of cyprids"
same,Mortality of cyprids,[3]; settlement bioassay wells,not very different from the control
same,Solubility,[4],practically insoluble in water
